# Test results published in US10869931B2, “Polyethylene glycol-modified angiogenesis inhibitor HM-1 and application thereof” (NANJING ANJI BIOLOGICAL TECHNOLOGY CO.,LTD, priority 2016, dated 2020).
# Marks after values point to notes of the source that are not given here. Where no end group is shown, it is not given here.
# How the values were obtained:
# [1] = test system: Brain tumor cells; test: MTT proliferation inhibition, brain tumor cells; format: cell-based, human; design: concentration or dose not given beside the values; conditions: 48 h
# Protocol: (§1) The activity of mPEG-HM-1 to inhibit the growth of various tumor cells was examined by MTT assay. The tumor cells were cultured to a concentration of 90% or more in a 37° C., 5% CO2 incubator and collected by trypsinization. The cells were resuspended in the culture medium and counted under a microscope to adjust the cell concentration to 2×10^4 cells/mL, the cell suspension was inoculated into a 96-well plate at 100 μL/well and incubated overnight at 37° C. in a 5% CO2 incubator. mPEG-HM-1 was diluted with the culture solution to each predetermined concentration. Docetaxel is diluted to the final concentration with the culture medium. After the cells were fully attached, each dilution was added to a 96-well plate (100 μL/well). The mPEG-HM-1 dilution was added as a drug-administered group, and docetaxel was added as a positive control group, and a culture solution without any drug was used as a negative control group. Incubate for 48 h at 37° C. in a 5% CO2 incubator. 5 mg/mL of MTT was added to a 96-well plate at 20 μL per well, and incubation was continued for 4 hours. The medium was aspirated, dissolved in 150 μL of DMSO per well, and gently mixed by shaking for 10 min. The absorbance was measured at a measurement wavelength of 570 nm and a reference wavelength of 630 nm using a microplate reader, and the rate of growth inhibition (proliferation inhibition, PI) was calculated. The formula is as follows: PI (%)=1−administration group/negative group
# (§2) The test was repeated 3 times independently, and the results obtained by the test were expressed as mean±SD, and the test results are shown in Table 15 to Table 18.
# [2] = test system: Esophageal cancer tumor cells; test: MTT proliferation inhibition, esophageal cancer cells; format: cell-based, human; design: concentration or dose not given beside the values; conditions: 48 h
# Protocol: as §1, §2
# [3] = test system: Breast cancer tumor cells; test: MTT proliferation inhibition, breast cancer cells; format: cell-based, human; design: concentration or dose not given beside the values; conditions: 48 h
# Protocol: as §1, §2
# [4] = test system: Colorectal cancer tumor cells; test: MTT proliferation inhibition, colorectal cancer cells; format: cell-based, human; design: concentration or dose not given beside the values; conditions: 48 h
# Protocol: as §1, §2
# [5] = test system: Prostate cancer tumor cells; test: MTT proliferation inhibition, prostate cancer cells; format: cell-based, human; design: concentration or dose not given beside the values; conditions: 48 h
# Protocol: as §1, §2
# [6] = test system: Hemangioma tumor cells; test: MTT proliferation inhibition, hemangioma cells; format: cell-based, human; design: concentration or dose not given beside the values; conditions: 48 h
# Protocol: as §1, §2
# [7] = test system: Human Umbilical Vein Endothelial Cells (HUVEC); test: Transwell migration of HUVEC; format: cell-based; conditions: 24 h
# Protocol: 10 mg/mL Matrigel was diluted 1:2 with HUVEC-specific medium, spread on a transwell chamber membrane, and air-dried at room temperature. HUVEC cells cultured in logarithmic growth phase were digested with trypsin digest, collected, washed twice with PBS, and resuspended in blank HUVECs-specific medium. The cells were counted under a microscope, and the cell concentration was adjusted to 1×10^5/mL. The test solutions of each group were prepared and diluted to 100 μL with a blank HUVECs-specific medium. The cells were seeded into a transwell chamber at 100 μL per well, and each set of test solution was added to the chamber. The cell culture was stimulated by adding 0.6 mL of endothelial cell culture medium containing 5% fetal bovine serum and 1% ECGS into a 24-well plate, and cultured at 5% CO2 for 24 hour at 37° c. Discard the culture medium in the well, fix it with 90% alcohol at room temperature for 30 minutes, 0.1% crystal violet for 10 min at room temperature, rinse with water, gently wipe off the unsprayed cells in the upper layer with a cotton swab, observe under microscope and select four fields to take pictures. Calculate migration inhibition (MI) according to the formula: […]
# Ntest was the number of cell migration in the test group, and Ncontrol was the number of cell migration in the blank control group.
# The test was repeated 3 times independently. The results obtained from the test were calculated as mean±SD, and a statistical T test was performed. *P<0.05 was a significant difference, and **P<0.01 was a very significant difference.
# [8] = test system: collagen induced arthritis (CIA) in DBA/1 mice; test: Collagen-induced mouse arthritis (CIA) model; format: in vivo; conditions: CIA DBA/1 mice; for Clinical score: maximum score 16
# [9] = test system: carrageenan-induced toe swelling in SD rats; test: Carrageenan-induced acute toe swelling in rats; format: in vivo, rat; design: Swelling: unit not given here
# Protocol: SD rats were divided into blank model group, dexamethasone-positive group (5 mg/kg) and mPEG-HM-1 test group. The drug was administered once a day, and the model group was given the same volume of normal saline for 3 days and fed normally. At the first hour after the last administration, 0.1 mL of 1% carrageenan was injected subcutaneously into the right hind paw of the rats to induce inflammation. The volume of the foot was measured at 1 h, 3 h, 5 h, and 7 h after inflammation. The degree of swelling of the foot was calculated according to the following formula: the degree of swelling of the foot (mL)=the volume of the foot after inflammation−the volume before inflammation. Record the number of milliliters of spilled liquid (method: use the ballpoint pen to circle as the measurement mark at the protruding point of the right joint, and then put the right hind foot of each mouse into the volume measuring device, so that the hind limb is exposed outside the cylinder, and the depth of the immersion was determined by coinciding the circle with the liquid surface. After the foot enters the liquid, the liquid level rises, and the volume of the overflow liquid is the volume of the right hind foot of the rat, and the normal volume of the right hind foot of each mouse is sequentially determined).
# [10] = 80 mg/kg subcutaneous from day 30 of modeling
# [11] = 10 mg/kg subcutaneous from day 30 of modeling
substance,measurement,setting,value
mPEG-bALD40k-Arg-Gly-Ala-Asp-Arg-Ala-Gly-Gly-Gly-Gly-Arg-Gly-Asp ({mPEG‑bALD 40 kDa}-RGADRAGGGGRGD) [mPEG-bALD40k-HM-1],rate of growth inhibition,[1],51.89 ± 11.91%
same,rate of growth inhibition,[2],57.19 ± 12.07%
same,rate of growth inhibition,[3],62.45 ± 19.04%
same,rate of growth inhibition,[4],66.90 ± 16.27%
same,rate of growth inhibition,[5],40.82 ± 11.75%
same,rate of growth inhibition,[6],48.69 ± 12.72%
same,cell migration number (Mean ± SD),[7]; 90 μg/mL,652.01 ± 52.63
same,inhibition rate of HUVEC migration,[7]; 90 μg/mL,40.30%*
same,cell migration number (Mean ± SD),[7]; 100 μg/mL,523.03 ± 60.52
same,inhibition rate of HUVEC migration,[7]; 100 μg/mL,52.11%
same,cell migration number (Mean ± SD),[7]; 110 μg/mL,545.63 ± 46.84
same,inhibition rate of HUVEC migration,[7]; 110 μg/mL,50.04%
same,cell migration number (Mean ± SD),[7]; 120 μg/mL,596.64 ± 50.46
same,inhibition rate of HUVEC migration,[7]; 120 μg/mL,45.37%*
same,Joint swelling,[8]; [10],0.78 ± 0.16 mm
same,Left and right paw swelling,[8]; [10],0.79 ± 0.13 mm
same,Clinical score,[8]; [10],9.01 ± 1.45
mPEG-bALD5k-Arg-Gly-Ala-Asp-Arg-Ala-Gly-Gly-Gly-Gly-Arg-Gly-Asp ({mPEG‑bALD 5 kDa}-RGADRAGGGGRGD) [mPEG-bALD5k-HM-1],rate of growth inhibition,[1],45.11 ± 12.09%
same,rate of growth inhibition,[2],45.03 ± 11.46%
same,rate of growth inhibition,[3],50.02 ± 10.47%
same,rate of growth inhibition,[4],59.35 ± 12.64%
same,rate of growth inhibition,[5],39.27 ± 12.50%
same,rate of growth inhibition,[6],40.29 ± 12.16%
same,cell migration number (Mean ± SD),[7]; 30 μg/mL,654.96 ± 52.07
same,inhibition rate of HUVEC migration,[7]; 30 μg/mL,40.03%*
same,cell migration number (Mean ± SD),[7]; 40 μg/mL,545.96 ± 45.32
same,inhibition rate of HUVEC migration,[7]; 40 μg/mL,50.01%
same,cell migration number (Mean ± SD),[7]; 50 μg/mL,489.28 ± 46.98
same,inhibition rate of HUVEC migration,[7]; 50 μg/mL,55.20%
same,cell migration number (Mean ± SD),[7]; 60 μg/mL,577.96 ± 58.76
same,inhibition rate of HUVEC migration,[7]; 60 μg/mL,47.08%*
same,Joint swelling,[8]; [11],0.73 ± 0.15 mm
same,Left and right paw swelling,[8]; [11],0.74 ± 0.13 mm
same,Clinical score,[8]; [11],8.98 ± 1.25
mPEG2-NHS40k-Arg-Gly-Ala-Asp-Arg-Ala-Gly-Gly-Gly-Gly-Arg-Gly-Asp ({mPEG2‑NHS 40 kDa}-RGADRAGGGGRGD) [mPEG2-NHS40k-HM-1],rate of growth inhibition,[1],42.56 ± 11.38%
same,rate of growth inhibition,[2],48.65 ± 12.64%
same,rate of growth inhibition,[3],49.12 ± 16.19%
same,rate of growth inhibition,[4],54.40 ± 18.29%
same,rate of growth inhibition,[5],45.91 ± 11.74%
same,rate of growth inhibition,[6],50.64 ± 15.89%
same,cell migration number (Mean ± SD),[7]; 90 μg/mL,640.05 ± 50.70
same,inhibition rate of HUVEC migration,[7]; 90 μg/mL,38.26%*
same,cell migration number (Mean ± SD),[7]; 100 μg/mL,516.99 ± 60.04
same,inhibition rate of HUVEC migration,[7]; 100 μg/mL,50.13%
same,cell migration number (Mean ± SD),[7]; 110 μg/mL,464.43 ± 46.48
same,inhibition rate of HUVEC migration,[7]; 110 μg/mL,55.20%
same,cell migration number (Mean ± SD),[7]; 120 μg/mL,584.48 ± 52.28
same,inhibition rate of HUVEC migration,[7]; 120 μg/mL,43.62%*
same,Joint swelling,[8]; [10],0.76 ± 0.14 mm
same,Left and right paw swelling,[8]; [10],0.79 ± 0.15 mm
same,Clinical score,[8]; [10],8.98 ± 1.30
same,Swelling,"[9]; 80 mg/kg once a day for 3 days, 1 h after carrageenan",0.26 ± 0.12
same,Swelling,"[9]; 80 mg/kg once a day for 3 days, 3 h after carrageenan",0.32 ± 0.11
same,Swelling,"[9]; 80 mg/kg once a day for 3 days, 5 h after carrageenan",0.42 ± 0.14
same,Swelling,"[9]; 80 mg/kg once a day for 3 days, 7 h after carrageenan",0.35 ± 0.17
same,Swelling,"[9]; 160 mg/kg once a day for 3 days, 1 h after carrageenan",0.27 ± 0.10
same,Swelling,"[9]; 160 mg/kg once a day for 3 days, 3 h after carrageenan",0.35 ± 0.18
same,Swelling,"[9]; 160 mg/kg once a day for 3 days, 5 h after carrageenan",0.41 ± 0.13
same,Swelling,"[9]; 160 mg/kg once a day for 3 days, 7 h after carrageenan",0.34 ± 0.19
